# Values quoted from earlier work as cited in patent US20090318550A1, “Emulsions comprising at least one retinoid and benzoyl peroxide” (GALDERMA RESEARCH & DEVELOPMENT, priority 2006, published 2009).
# Read-outs that look alike come from different tables or passages of the source.
# Assays:
# [1] = in presence of benzoyl peroxide formulation
# [2] = for Decomposition time: 40° C.
structure (smiles),measurement,setting,value
"COc1ccc(-c2ccc3cc(C(=O)O)ccc3c2)cc1C12CC3CC(CC(C3)C1)C2 [adapalene, 6-(3-(1-adamantyl)-4-methoxyphenyl)-2-naphthoic acid]",Decomposition of the retinoid,[1]; during 24 hours,no decomposition
O=C(OOC(=O)c1ccccc1)c1ccccc1 [benzoyl peroxide],Decomposition time,[2]; in solution in PEG 400 (0.5 mg/g),1.4 days
same,Decomposition time,[2]; in solution in ethanol,29 days
same,Decomposition time,[2]; in solution in propylene glycol,53 days
same,Decomposition in suspension (dispersed form),"[2]; in water and propylene glycol, storing for 90 days",not decomposed
CC1=C(/C=C/C(C)=C/C=C/C(C)=C/C(=O)O)C(C)(C)CCC1 [tretinoin],Decomposition of the retinoid,[1]; 2 hours,50%
same,Decomposition of the retinoid,[1]; 4 hours,95%
